Data: patent publication US6821743B2, “Human endothelin receptor” (Shionogi Sieyaku Kabushiki Kaisha, priority 1991, dated 2004)
“Also recorded” adds a separate entry of the source. Bridge positions count the residues as written; N and C are the ends. Peptide text beside a SMILES is read from it.

Assays:
[1] = in vivo, previously shown; cited from earlier work
ETB-receptor = molecular target: T1, ETB-receptor (Homo sapiens, UniProt P24530); assay: Competitive 125I-ET-1 binding assay on COS-7 cells transfected with CDM8-pHETBR
T1 construct: expressed in transfected cells; host or cells: COS-7 cells
T1 sequence (P24530 27-442): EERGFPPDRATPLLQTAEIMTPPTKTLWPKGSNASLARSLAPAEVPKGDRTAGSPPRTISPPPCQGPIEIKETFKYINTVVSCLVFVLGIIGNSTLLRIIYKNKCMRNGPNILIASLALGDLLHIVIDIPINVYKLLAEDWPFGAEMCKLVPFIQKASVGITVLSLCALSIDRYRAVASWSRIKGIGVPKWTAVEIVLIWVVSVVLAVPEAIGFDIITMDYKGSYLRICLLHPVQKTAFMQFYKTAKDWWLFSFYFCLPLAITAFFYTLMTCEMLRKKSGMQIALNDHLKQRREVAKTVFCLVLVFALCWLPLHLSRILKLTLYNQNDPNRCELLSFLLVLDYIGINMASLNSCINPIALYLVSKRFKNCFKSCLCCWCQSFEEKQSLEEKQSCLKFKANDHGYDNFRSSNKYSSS

[2] = system: rat A-10 vascular smooth muscle cell; conditions: J. Biol. Chem. 265, 14044-14049 (1990); cited from earlier work
ETA-receptor [3] = molecular target: T2, ETA-receptor (Homo sapiens, UniProt P25101); assay: Inward current in Xenopus laevis oocytes injected with ETA-receptor mRNA; format: cell-based; conditions: 1×10^−7 M peptide, holding potential −60 mV, 20° C.
T2 sequence (P25101 21-427): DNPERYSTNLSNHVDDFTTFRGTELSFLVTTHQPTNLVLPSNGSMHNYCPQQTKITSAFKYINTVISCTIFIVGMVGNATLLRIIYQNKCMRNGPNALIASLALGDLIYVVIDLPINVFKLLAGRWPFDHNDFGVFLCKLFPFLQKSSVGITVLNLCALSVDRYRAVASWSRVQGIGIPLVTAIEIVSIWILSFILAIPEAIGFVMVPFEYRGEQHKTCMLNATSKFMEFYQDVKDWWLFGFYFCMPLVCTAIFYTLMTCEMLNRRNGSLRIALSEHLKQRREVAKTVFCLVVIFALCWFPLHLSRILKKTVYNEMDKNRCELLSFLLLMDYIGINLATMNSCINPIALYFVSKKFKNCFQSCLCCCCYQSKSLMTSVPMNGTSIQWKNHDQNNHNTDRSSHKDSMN

ETA-receptor [4] = molecular target: T2, ETA-receptor; assay: Competitive 125I-ET-1 binding assay on COS-7 cells transfected with CDM8-phETIR; parameters: expressed in transfected cells; host or cells: COS-7 cells; conditions: displacement of 50 pM 125I-ET-1, transfected COS-7 cells, 37° C. for 60 min

SMILES	vasoconstrictor strength [1]	affinity of the receptor (FIG. 4) (ETB-receptor; transformant containing CDM8-pHETBR)	inhibition of binding of 125I-ET-1 [2]	inward current recorded from the oocyte (ETA-receptor [3])	IC50 (ETA-receptor [4])	IC50 (ETB-receptor; displacement of 125I-ET-1, COS cell transformed with CDM8-pHETBR)
CC[C@H](C)[C@H](NC(=O)[C@H](CC(=O)O)NC(=O)[C@H](CC(C)C)NC(=O)[C@H](Cc1c[nH]cn1)NC(=O)[C@@H]1CSSC[C@H](N)C(=O)N[C@@H](CO)C(=O)N[C@H]2CSSC[C@H](NC(=O)[C@H](CCC(=O)O)NC(=O)[C@H](CCCCN)NC(=O)[C@H](CC(=O)O)NC(=O)[C@H](CC(C)C)NC(=O)[C@H](Cc3c[nH]c4ccccc34)NC(=O)[C@H](CO)NC(=O)[C@H](CO)NC2=O)C(=O)N[C@@H](C(C)C)C(=O)N[C@@H](Cc2ccc(O)cc2)C(=O)N[C@@H](Cc2ccccc2)C(=O)N1)C(=O)N[C@H](C(=O)N[C@@H](Cc1c[nH]c2ccccc12)C(=O)O)[C@@H](C)CC [ET-2, Endothelin 2] (H-CSCSSWLDKECVYFCHLDIIW-OH; disulfide 1-15, 3-11; N-terminus and C-terminus assumed)	much more strong vasoconstrictors than ET-3	almost the same affinity	inhibit the binding of ^125I-ET-1	the same value of current; also recorded: A similar inward current		
CC[C@H](C)[C@H](NC(=O)[C@H](CC(=O)O)NC(=O)[C@H](CC(C)C)NC(=O)[C@H](Cc1c[nH]cn1)NC(=O)[C@@H]1CSSC[C@H](N)C(=O)N[C@@H](CO)C(=O)N[C@H]2CSSC[C@H](NC(=O)[C@H](CCC(=O)O)NC(=O)[C@H](CCCCN)NC(=O)[C@H](CC(=O)O)NC(=O)[C@H](CCSC)NC(=O)[C@H](CC(C)C)NC(=O)[C@H](CO)NC(=O)[C@H](CO)NC2=O)C(=O)N[C@@H](C(C)C)C(=O)N[C@@H](Cc2ccc(O)cc2)C(=O)N[C@@H](Cc2ccccc2)C(=O)N1)C(=O)N[C@H](C(=O)N[C@@H](Cc1c[nH]c2ccccc12)C(=O)O)[C@@H](C)CC [ET-1, Endothelin 1]	much more strong vasoconstrictors than ET-3		inhibit the binding of ^125I-ET-1			
CC[C@H](C)[C@H](NC(=O)[C@H](CC(=O)O)NC(=O)[C@H](CC(C)C)NC(=O)[C@H](Cc1cnc[nH]1)NC(=O)[C@@H]1CSSC[C@H](N)C(=O)N[C@@H](CO)C(=O)N[C@H]2CSSC[C@H](NC(=O)[C@H](CCC(=O)O)NC(=O)[C@H](CCCCN)NC(=O)[C@H](CC(=O)O)NC(=O)[C@H](CC(C)C)NC(=O)[C@H](Cc3c[nH]c4ccccc34)NC(=O)[C@H](CO)NC(=O)[C@H](CO)NC2=O)C(=O)N[C@@H](C(C)C)C(=O)N[C@@H](Cc2ccc(O)cc2)C(=O)N[C@@H](Cc2ccccc2)C(=O)N1)C(=O)N[C@H](C(=O)N[C@@H](Cc1c[nH]c2ccccc12)C(=O)O)[C@@H](C)CC [ET-2, Endothelin 2] (H-CSCSSWLDKECVYFCHLDIIW-OH; disulfide 1-15, 3-11)					6.1 nM	~1 nM
